Patent US20250313535A1, “ALPHA 4 BETA 7 INTEGRIN MODULATORS AND USES THEREOF” (DICE MOLECULES SV, INC., priority 2022, published 2025)
Read-outs that look alike come from different tables or passages of the source.

What was measured:
Format in all cases: cell-based
α4β7 integrin [1] = molecular target: T1, α4β7 integrin (Homo sapiens (Human), UniProt P13612+P26010); assay: Integrin Adhesion Assay: Protocol 4 (MAdCAM-coated plate, RPMI-8866 cells with stable LOF mutation of the ITGB1 gene)
Summary of the method: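 RPMI-8866 cells with CRISPR/Cas9 knockout of ITGB1 (2×10^6/mL) were added to MAdCAM-coated wells with compound (1% DMSO) in HEPES/NaCl buffer with 1 mM MnCl2, 0.1 mM CaCl2 and 1% BSA, then incubated 1 h at 37 °C. After four washes, adherent cells were quantified by CellTiter-Glo luminescence. Percent inhibition versus DMSO and control compound was fitted to 4-parameter curves.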

α4β7 integrin [2] = molecular target: T1, α4β7 integrin; assay: Integrin Adhesion Assay: Protocol 1 (MAdCAM-coated plate, RPMI-8866 cells, CellTiter GLO readout)
Summary of the method: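 RPMI-8866 cells (2×10^6 per mL) added with compounds (1% DMSO) to MAdCAM-coated wells blocked in HEPES/NaCl buffer with 1 mM MnCl2, 0.1 mM CaCl2, 1% BSA; 1 h at 37° C, 5% CO2. After four washes, bound cells read by CellTiter GLO luminescence; % inhibition vs DMSO and control wells, 4-parameter fit.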

α4β1 integrin = α4β1 integrin (Homo sapiens (Human), UniProt P05556+P13612); assay: Integrin Adhesion Assay: Protocol 5 (VCAM-coated plate, RPMI-8866 cells with stable LOF mutation of the ITGB7 gene)
Summary of the method: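 RPMI-8866 B cells with CRISPR/Cas9 ITGB7 knockout (clonal, verified by flow cytometry) adhered to VCAM-coated wells for 1 h at 37° C in HEPES/NaCl buffer with 1 mM MnCl2, 0.1 mM CaCl2, 1% BSA, 1% DMSO. Bound cells quantified by CellTiter-Glo luminescence after washing; % inhibition versus DMSO and control, 4-parameter fit.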

[3] = RPMI-8866 cells with stable LOF mutation of the ITGB1 gene, read-out: Mean IC50 α4β7 KO^a
[4] = RPMI-8866 cells with stable LOF mutation of the ITGB7 gene, read-out: Mean IC50 α4β1 KO^b
[5] = Protocol 4, RPMI-8866 cells with LOF mutation of ITGB1, MAdCAM, read-out: Mean IC50 α4β7 KO
[6] = Protocol 5, RPMI-8866 cells with LOF mutation of ITGB7, VCAM, read-out: Mean IC50 α4β1 KO

T1 sequence (P13612 34-1032): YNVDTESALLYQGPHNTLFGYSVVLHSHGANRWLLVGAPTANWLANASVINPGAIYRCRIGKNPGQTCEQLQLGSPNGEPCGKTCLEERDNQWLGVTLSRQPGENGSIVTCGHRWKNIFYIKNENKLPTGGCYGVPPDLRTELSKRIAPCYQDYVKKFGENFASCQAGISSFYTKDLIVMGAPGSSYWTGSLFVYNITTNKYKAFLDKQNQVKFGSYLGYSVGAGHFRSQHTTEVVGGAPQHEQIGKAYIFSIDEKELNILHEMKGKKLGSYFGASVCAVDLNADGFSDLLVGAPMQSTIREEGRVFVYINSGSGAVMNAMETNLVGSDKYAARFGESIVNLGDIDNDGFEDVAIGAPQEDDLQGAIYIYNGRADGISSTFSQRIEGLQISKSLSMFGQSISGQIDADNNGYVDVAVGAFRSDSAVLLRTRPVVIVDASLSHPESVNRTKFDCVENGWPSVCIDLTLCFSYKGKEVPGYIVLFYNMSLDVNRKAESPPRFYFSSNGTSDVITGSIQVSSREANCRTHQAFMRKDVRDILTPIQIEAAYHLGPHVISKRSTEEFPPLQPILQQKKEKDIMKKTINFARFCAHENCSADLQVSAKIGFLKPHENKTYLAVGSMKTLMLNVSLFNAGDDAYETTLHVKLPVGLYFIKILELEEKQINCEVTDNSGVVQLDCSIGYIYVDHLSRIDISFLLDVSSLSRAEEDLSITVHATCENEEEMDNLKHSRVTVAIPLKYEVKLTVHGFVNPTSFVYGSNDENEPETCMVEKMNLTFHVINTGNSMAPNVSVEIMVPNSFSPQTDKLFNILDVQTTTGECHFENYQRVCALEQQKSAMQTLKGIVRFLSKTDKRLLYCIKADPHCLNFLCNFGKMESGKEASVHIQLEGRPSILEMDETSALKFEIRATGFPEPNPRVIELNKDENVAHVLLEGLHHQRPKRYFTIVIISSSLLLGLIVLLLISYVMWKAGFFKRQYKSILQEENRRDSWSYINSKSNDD
T1 sequence (P26010 20-798): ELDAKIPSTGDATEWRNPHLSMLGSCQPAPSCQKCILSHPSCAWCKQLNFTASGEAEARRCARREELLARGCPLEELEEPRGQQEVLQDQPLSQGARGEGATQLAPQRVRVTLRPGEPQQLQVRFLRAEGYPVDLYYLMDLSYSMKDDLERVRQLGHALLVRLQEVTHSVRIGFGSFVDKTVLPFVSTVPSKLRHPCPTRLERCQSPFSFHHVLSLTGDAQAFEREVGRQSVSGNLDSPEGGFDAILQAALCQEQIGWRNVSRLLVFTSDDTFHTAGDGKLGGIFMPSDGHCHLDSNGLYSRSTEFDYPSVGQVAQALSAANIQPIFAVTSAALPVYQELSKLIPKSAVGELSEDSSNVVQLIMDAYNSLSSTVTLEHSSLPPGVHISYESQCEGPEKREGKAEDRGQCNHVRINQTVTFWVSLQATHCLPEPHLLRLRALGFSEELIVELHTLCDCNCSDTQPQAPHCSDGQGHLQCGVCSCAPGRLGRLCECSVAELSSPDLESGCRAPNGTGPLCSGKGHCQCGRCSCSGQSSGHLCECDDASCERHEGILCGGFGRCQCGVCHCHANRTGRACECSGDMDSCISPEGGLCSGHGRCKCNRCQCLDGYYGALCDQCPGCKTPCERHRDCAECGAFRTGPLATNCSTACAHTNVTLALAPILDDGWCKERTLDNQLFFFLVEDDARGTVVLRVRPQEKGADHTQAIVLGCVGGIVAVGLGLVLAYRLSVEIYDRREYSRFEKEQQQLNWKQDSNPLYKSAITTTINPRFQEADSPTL
Chain of α4β1 integrin (P13612 34-1032): as the sequence (P13612 34-1032) above
Chain of α4β1 integrin (P05556 21-798): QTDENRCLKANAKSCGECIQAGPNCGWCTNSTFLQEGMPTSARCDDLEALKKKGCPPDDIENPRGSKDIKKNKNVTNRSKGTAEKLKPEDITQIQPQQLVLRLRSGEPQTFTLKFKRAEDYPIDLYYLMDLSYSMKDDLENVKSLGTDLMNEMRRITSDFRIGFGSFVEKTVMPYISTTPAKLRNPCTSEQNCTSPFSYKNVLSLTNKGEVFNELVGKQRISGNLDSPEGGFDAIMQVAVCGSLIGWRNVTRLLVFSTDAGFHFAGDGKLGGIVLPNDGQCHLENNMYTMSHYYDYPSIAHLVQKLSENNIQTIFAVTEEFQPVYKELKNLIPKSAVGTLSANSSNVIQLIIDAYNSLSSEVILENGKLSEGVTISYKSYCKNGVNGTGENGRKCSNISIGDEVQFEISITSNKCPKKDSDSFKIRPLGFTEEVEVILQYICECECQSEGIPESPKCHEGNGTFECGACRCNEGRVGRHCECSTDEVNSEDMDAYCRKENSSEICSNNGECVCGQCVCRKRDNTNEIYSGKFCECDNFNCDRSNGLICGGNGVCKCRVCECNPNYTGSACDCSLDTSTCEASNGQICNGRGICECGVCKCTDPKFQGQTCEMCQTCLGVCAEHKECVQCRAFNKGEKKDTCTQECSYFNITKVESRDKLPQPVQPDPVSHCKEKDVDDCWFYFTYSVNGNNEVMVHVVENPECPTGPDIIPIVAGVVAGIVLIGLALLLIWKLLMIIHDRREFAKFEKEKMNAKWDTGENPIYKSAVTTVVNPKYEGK

IC50 (α4β7 integrin [1]; [3]) [µM] | IC50 (α4β7 integrin [2]) [µM] | IC50 (α4β1 integrin; [4]) [µM] | IC50 (α4β7 integrin [1]; [5]) [µM] | IC50 (α4β7 integrin [2]; protocol not given) [µM] | IC50 (α4β1 integrin; [6]) [µM] | Compound
0.1 to 1 | 0.1 to 1 | > 1 | – | – | – | CN(C)c1ccc2c(c1)c(C(F)(F)F)c(-c1cccc3c(C[C@H](NC(=O)[C@]4(C)CC[C@@H](N5CCC(F)(F)CC5)CC4)C(=O)O)cccc13)c(=O)n2C [Compound 411]
0.1 to 1 | 0.1 to 1 | > 1 | – | – | – | Cc1cccc(F)c1C(=O)N[C@@H](Cc1cccc2c(-c3c(C(F)(F)F)c4cc(N(C)C)ccc4n(C)c3=O)cccc12)C(=O)O [Compound 449]
– | – | – | 0.01 to 0.1 | 0.01 to 0.1 | > 1 | O=C(N[C@@H](Cc1cccc2c(-n3cccc(C(F)(F)F)c3=O)cccc12)C(=O)O)c1c(F)cccc1F [Compound 1054]
0.01 to 0.1 | 0.01 to 0.1 | > 1 | – | – | – | Cn1c(=O)c(-c2cccc3c(C[C@H](NC(=O)[C@]4(C)CC[C@@H](N5CCS(=O)(=O)CC5)CC4)C(=O)O)cccc23)c(C(F)(F)F)c2ccccc21 [Compound 403]
– | – | – | > 1 | 0.1 to 1 | > 1 | CN(C)c1ccc2c(C(F)(F)F)c(-c3cccc4c(C[C@H](NC(=O)c5c(F)cccc5F)C(=O)O)cccc34)c(=O)n(C)c2c1 [Compound 719]
– | – | – | 0.01 to 0.1 | < 0.01 | 0.1 to 1 | CN(C)Cc1ccc2c(c1)c(C(F)(F)F)c(-c1cccc3c(C[C@H](NC(=O)c4c(F)cc(C(F)(F)F)cc4F)C(=O)O)cccc13)c(=O)n2C [Compound 699]
> 1 | 0.1 to 1 | – | – | – | – | Cc1cncc(C)c1-c1cc(F)c(C(=O)N[C@@H](Cc2cccc3c(-c4c(C(F)(F)F)c5ccccc5n(C)c4=O)cccc23)C(=O)O)c(F)c1 [Compound 305]
0.1 to 1 | 0.1 to 1 | – | – | – | – | Cn1c(=O)c(-c2cccc3c(C[C@H](NC(=O)[C@]4(C)CC[C@@H](N5CCS(=O)(=O)CC5)CC4)C(=O)O)cccc23)c(C(F)(F)F)c2ccccc21 [Compound 404]
0.1 to 1 | 0.1 to 1 | – | – | – | – | Cn1c(=O)c(-c2cccc3c(C[C@H](NC(=O)c4c(F)cc(N5CC6C(C5)C6(F)F)cc4F)C(=O)O)cccc23)c(C(F)(F)F)c2ccccc21 (some centres unmarked) [Compound 389]
0.1 to 1 | 0.1 to 1 | – | – | – | – | Cn1c(=O)c(-c2cccc3c(C[C@H](NC(=O)c4c(F)ccc(C(F)(F)F)c4F)C(=O)O)cccc23)c(C(F)(F)F)c2ccccc21 [Compound 461]
0.01 to 0.1 | 0.01 to 0.1 | > 1 | – | – | – | CN(C)c1ccc2c(c1)c(C(F)(F)F)c(-c1cccc3c(C[C@H](NC(=O)C4(C(F)(F)F)CCN(CC(F)(F)F)CC4)C(=O)O)cccc13)c(=O)n2C [Compound 454]
< 0.01 | < 0.01 | 0.1 to 1 | – | – | – | COc1ccc(CN(C)C)c(OC)c1-c1cccc2c(C[C@H](NC(=O)c3c(C)cccc3F)C(=O)O)cccc12 [Compound 450]
0.01 to 0.1 | 0.01 to 0.1 | > 1 | – | – | – | Cc1cccc(F)c1C(=O)N[C@@H](Cc1cccc2c(-c3c(C(F)(F)F)ccn(C)c3=O)cccc12)C(=O)O [Compound 460]
0.1 to 1 | 0.1 to 1 | – | – | – | – | CN(C)Cc1cccc2c(-c3cccc4c(C[C@H](NC(=O)[C@]5(C)CC[C@H](N6CCC(F)(F)CC6)CC5)C(=O)O)cccc34)nccc12 [Compound 425]
0.01 to 0.1 | 0.01 to 0.1 | 0.1 to 1 | – | – | – | Cn1c(=O)c(-c2cccc3c(C[C@H](NC(=O)C4(C(F)(F)F)CCN(CC(F)(F)F)CC4)C(=O)O)cccc23)c(C(F)(F)F)c2ccccc21 [Compound 352]
0.1 to 1 | 0.1 to 1 | – | – | – | – | Cn1c(=O)c(-c2cccc3c(C[C@H](NC(=O)c4c(F)cc(N5CCOc6ccccc65)cc4F)C(=O)O)cccc23)c(C(F)(F)F)c2ccccc21 [Compound 332]
0.01 to 0.1 | 0.01 to 0.1 | > 1 | – | – | – | Cc1c(F)ccc(F)c1C(=O)N[C@@H](Cc1cccc2c(-c3c(C(F)(F)F)c4ccccc4n(C)c3=O)cccc12)C(=O)O [Compound 444]
< 0.01 | < 0.01 | > 1 | – | – | – | CN(C)Cc1cccc2c(-c3cccc4c(C[C@H](NC(=O)c5c(F)cc(N6CCOC[C@@H]6C(F)(F)F)cc5CN5CCCC5)C(=O)O)cccc34)nccc12 [Compound 433]
0.1 to 1 | 0.1 to 1 | – | – | – | – | Cn1c(=O)c(-c2cccc3c(C[C@H](NC(=O)c4c(F)ccc(-c5ccncc5)c4F)C(=O)O)cccc23)c(C(F)(F)F)c2ccccc21 [Compound 311]
